Measurements reported in publication PMC5469273, “Discovery of Novel Small-Molecule Inhibitors of LIM Domain Kinase for Inhibiting HIV-1” (Journal of Virology, 2017).

Columns and labels:
ROCK1 = ROCK1 (Homo sapiens, UniProt Q13464); assay: Kinase profiling (Reaction Biology): ROCK1
[1] = system: HIV DNA-transfected HEK293 cells; type: cell-based, HIV-1; settings: different concentrations, 48 h
p70S6K/RPS6KB1 = p70S6K/RPS6KB1 (Homo sapiens, UniProt P23443); assay: Kinase profiling (Reaction Biology): p70S6K/RPS6KB1; settings: read-out: inhibition of p70S6K
p70S6K/RPS6KB1, sequence (P23443 whole entry): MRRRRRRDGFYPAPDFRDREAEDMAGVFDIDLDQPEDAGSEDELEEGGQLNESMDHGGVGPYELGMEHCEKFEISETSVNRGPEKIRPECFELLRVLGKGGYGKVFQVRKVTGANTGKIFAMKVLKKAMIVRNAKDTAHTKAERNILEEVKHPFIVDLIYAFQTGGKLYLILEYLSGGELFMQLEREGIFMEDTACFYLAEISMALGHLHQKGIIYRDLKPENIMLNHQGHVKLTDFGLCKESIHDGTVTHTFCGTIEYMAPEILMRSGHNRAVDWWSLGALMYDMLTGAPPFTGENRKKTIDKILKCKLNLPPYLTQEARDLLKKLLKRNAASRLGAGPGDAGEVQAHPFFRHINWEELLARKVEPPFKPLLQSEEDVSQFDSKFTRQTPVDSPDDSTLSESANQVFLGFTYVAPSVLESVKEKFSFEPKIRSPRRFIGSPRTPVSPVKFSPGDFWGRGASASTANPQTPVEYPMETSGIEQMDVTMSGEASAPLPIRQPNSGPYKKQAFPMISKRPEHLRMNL

AMPK(A1/B1/G1) = AMPK(A1/B1/G1) (Homo sapiens, UniProt Q13131); assay: Kinase profiling (Reaction Biology): AMPK(A1/B1/G1)
AMPK(A1/B1/G1), sequence (Q13131 whole entry): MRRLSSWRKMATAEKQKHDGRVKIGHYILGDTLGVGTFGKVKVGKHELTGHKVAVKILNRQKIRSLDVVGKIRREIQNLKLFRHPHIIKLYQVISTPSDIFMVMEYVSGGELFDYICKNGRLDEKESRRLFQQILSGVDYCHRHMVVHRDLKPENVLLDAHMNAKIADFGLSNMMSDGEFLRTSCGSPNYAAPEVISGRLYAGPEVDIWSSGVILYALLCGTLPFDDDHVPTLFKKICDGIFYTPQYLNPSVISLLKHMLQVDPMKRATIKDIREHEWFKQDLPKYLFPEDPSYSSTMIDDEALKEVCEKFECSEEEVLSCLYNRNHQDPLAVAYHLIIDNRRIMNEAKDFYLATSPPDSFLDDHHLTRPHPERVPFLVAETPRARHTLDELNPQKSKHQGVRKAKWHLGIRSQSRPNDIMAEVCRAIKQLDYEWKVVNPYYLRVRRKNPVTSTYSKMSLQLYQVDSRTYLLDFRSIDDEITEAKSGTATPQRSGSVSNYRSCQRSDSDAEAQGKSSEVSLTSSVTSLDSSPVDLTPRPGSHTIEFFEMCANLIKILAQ
AMPK(A1/B1/G1), sequence (Q9Y478 whole entry partner): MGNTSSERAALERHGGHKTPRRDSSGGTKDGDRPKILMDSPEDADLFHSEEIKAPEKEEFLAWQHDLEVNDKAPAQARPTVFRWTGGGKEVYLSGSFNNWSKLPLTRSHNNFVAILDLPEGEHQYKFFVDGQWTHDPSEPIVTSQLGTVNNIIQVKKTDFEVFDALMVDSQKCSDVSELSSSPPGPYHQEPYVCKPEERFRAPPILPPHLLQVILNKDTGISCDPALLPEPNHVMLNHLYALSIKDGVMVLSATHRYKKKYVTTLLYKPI
AMPK(A1/B1/G1), sequence (P54619 whole entry partner): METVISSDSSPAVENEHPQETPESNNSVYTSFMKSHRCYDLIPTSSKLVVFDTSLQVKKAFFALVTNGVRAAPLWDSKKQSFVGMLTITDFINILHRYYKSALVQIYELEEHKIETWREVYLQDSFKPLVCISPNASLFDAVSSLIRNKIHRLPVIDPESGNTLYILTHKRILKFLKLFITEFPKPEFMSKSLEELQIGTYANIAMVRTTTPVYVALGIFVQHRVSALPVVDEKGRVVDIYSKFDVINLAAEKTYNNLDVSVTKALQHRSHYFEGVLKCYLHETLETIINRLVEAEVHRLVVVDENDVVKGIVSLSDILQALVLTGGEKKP

CK2a = CK2a (Homo sapiens, UniProt P68400); assay: Kinase profiling (Reaction Biology): CK2a
CK2a, sequence (P68400 whole entry): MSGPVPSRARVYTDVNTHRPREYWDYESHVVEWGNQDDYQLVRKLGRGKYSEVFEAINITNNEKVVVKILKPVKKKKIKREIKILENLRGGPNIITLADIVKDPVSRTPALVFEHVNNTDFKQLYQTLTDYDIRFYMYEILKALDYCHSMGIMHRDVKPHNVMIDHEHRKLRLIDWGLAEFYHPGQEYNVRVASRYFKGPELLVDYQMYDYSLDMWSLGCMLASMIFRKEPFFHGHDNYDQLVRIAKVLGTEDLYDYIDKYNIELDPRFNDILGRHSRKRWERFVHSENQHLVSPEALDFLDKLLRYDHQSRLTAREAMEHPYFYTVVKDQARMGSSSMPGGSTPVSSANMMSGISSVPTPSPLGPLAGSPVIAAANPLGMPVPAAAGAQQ

VEEV (TrD) = type: cell-based, Venezuelan equine encephalitis virus; settings: Vero cells, MOI 0.1, 24 h
RET = RET (Homo sapiens, UniProt P07949); assay: Kinase profiling (Reaction Biology): RET
RET, sequence (P07949 29-1114): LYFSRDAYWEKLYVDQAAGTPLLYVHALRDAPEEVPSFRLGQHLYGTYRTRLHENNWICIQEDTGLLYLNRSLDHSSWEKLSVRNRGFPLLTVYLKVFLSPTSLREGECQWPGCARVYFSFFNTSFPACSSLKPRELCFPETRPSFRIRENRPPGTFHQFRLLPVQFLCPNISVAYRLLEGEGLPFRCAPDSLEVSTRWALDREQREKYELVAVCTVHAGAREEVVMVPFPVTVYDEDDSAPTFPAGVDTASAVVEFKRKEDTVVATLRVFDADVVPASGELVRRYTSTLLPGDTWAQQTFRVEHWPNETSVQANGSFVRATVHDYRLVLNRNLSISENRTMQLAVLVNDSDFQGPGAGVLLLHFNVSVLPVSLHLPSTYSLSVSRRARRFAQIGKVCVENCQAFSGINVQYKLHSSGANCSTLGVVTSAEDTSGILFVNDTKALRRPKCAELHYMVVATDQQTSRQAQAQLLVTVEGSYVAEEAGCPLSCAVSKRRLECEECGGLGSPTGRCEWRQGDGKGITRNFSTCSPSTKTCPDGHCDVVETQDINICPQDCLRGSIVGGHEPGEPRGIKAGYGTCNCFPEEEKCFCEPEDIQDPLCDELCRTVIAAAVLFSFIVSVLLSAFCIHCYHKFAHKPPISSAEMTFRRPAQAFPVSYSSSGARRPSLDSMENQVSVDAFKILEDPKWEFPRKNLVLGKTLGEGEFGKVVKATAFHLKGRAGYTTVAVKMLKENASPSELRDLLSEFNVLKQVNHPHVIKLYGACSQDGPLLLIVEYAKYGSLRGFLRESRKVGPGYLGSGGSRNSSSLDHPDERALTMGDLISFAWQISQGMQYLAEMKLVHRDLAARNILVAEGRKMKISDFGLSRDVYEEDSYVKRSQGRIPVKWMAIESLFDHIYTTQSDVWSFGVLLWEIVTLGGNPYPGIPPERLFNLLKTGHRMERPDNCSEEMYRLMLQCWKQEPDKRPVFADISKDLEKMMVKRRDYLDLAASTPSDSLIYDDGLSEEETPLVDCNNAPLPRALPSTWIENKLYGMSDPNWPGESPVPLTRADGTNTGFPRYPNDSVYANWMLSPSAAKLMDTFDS

HIV-1(Nef-luciferase) = assay: Nef-luciferase-based viral entry assay; type: cell-based; settings: 100 μM; data not shown
EBOV (Zaire) = type: cell-based, Zaire ebolavirus; settings: HFF-1 cells, pretreated 2 h, MOI 2.5, 48 h in continuous presence

ROCK1, sequence (Q13464 whole entry): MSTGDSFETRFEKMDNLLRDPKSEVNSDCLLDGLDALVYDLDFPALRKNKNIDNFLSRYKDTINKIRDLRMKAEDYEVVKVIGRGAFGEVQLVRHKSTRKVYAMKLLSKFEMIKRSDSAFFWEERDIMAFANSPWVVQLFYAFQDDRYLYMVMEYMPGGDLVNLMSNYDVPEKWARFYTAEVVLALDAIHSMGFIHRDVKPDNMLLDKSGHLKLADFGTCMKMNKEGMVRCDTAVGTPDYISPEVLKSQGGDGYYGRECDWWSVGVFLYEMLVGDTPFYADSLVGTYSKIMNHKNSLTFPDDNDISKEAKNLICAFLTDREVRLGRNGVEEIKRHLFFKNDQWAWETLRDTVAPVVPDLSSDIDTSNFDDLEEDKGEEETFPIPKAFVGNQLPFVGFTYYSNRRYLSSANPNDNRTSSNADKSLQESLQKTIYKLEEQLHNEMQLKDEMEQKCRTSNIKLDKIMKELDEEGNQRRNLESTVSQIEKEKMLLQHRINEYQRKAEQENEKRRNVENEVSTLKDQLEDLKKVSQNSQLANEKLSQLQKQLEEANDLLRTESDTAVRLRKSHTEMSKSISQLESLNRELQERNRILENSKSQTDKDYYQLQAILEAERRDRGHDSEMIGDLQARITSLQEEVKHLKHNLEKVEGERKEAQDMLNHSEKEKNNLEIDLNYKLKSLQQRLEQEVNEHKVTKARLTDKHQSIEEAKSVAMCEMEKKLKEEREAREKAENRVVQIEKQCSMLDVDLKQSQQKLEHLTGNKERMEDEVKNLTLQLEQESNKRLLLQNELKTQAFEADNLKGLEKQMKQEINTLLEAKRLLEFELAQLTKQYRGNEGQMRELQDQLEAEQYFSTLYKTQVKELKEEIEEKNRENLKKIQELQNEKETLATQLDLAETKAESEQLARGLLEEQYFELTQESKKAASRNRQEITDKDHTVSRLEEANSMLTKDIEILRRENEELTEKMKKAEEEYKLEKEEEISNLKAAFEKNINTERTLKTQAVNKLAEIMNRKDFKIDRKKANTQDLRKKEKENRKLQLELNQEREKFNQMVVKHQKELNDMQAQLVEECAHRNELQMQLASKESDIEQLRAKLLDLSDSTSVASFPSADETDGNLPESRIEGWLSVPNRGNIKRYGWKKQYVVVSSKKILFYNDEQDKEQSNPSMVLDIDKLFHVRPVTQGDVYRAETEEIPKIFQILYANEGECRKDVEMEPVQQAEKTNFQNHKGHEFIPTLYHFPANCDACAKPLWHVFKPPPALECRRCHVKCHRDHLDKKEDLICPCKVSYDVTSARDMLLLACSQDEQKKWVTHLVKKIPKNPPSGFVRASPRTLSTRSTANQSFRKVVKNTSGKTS

## COC(=O)c1ccc2[nH]c(C3CCN(c4ncnc5[nH]cc(Cl)c45)CC3)nc2c1 [Compound R10015, Methyl 2-(1-(5-chloro-7H-pyrrolo[2,3-d]pyrimidin-4-yl)piperidin-4-yl)-1H-benzo[d]imidazole-5-carboxylate]
ROCK1
  activity at 1 µM: 42.3%
[1]
  virion release from HIV DNA-transfected HEK293 cells: inhibited
p70S6K/RPS6KB1
  inhibition at 1 µM: ≥ 90%
AMPK(A1/B1/G1)
  activity at 1 µM: 76.6%
CK2a
  activity at 1 µM: 94.2%
VEEV (TrD)
  inhibition of VEEV (TrD): 2 log units
RET
  activity at 1 µM: 46.5%
HIV-1(Nef-luciferase)
  viral entry, HIV-1(Nef-luciferase): did not significantly inhibit
EBOV (Zaire)
  inhibition of EBOV: dose-dependent inhibition
